Test results from ChEMBL document CHEMBL1157121, “Diterpenoids from the feces of Trogopterus xanthipes” (J Nat Prod, 2010).

Assays:
Format in all cases: functional, cell-based
HepG2 = experiment: Cytotoxicity against human HepG2 cells after 48 hrs by MTT assay; details: HepG2, 48 h
HL-60 = experiment: Cytotoxicity against human HL60 cells after 48 hrs by MTT assay; details: HL-60, 48 h
Jurkat = experiment: Cytotoxicity against human Jurkat cells after 48 hrs by MTT assay
U-937 = experiment: Cytotoxicity against human U937 cells after 48 hrs by MTT assay; details: U-937, 48 h

Compound | IC50 (HepG2) | IC50 (HL-60) | IC50 (Jurkat) | IC50 (U-937)
C=C[C@@]1(C)CCC2=C(CC[C@H]3C(C)(C)[C@@H](O)CC[C@]23C)C1 | > 40 µM | > 40 µM | > 40 µM | > 40 µM
C=C[C@]1(C)C=C2CC[C@H]3C(C)(C)C(=O)CC[C@]3(C)[C@H]2CC1 | > 40 µM | > 40 µM | > 40 µM | > 40 µM
CC(C)c1c(O)ccc2c1CC[C@H]1C(C)(C)[C@@H](O)CC[C@]21C | > 40 µM | 24.3 µM | > 40 µM | 24.7 µM
CC(C)c1c(O)ccc2c1CC[C@H]1[C@@](C)(CO)C(=O)CC[C@]21C [TROGOPTEROID D] | > 40 µM | > 40 µM | > 40 µM | > 40 µM
C=C[C@@]1(C)CC[C@H]2C(=CC[C@H]3C(C)(C)C(=O)CC[C@]23C)C1 | 32.9 µM | > 40 µM | > 40 µM | > 40 µM
C=C[C@@]1(C)CC[C@H]2[C@@](O)(CC[C@H]3C(C)(C)C(=O)CC[C@@]32C)C1 | > 40 µM | > 40 µM | > 40 µM | > 40 µM
C=C[C@@]1(C)CC[C@H]2C(=CC[C@H]3C(C)(C)[C@@H](O)CC[C@]23C)C1 [ISOPIMARANE] | > 40 µM | > 40 µM | > 40 µM | > 40 µM
CC(C)c1cc2c(cc1O)CC[C@H]1C(C)(C)CCC[C@]21C [SEMPERVIROL] | > 40 µM | > 40 µM | > 40 µM | > 40 µM
CC(C)c1c(O)ccc2c1CC[C@H]1[C@@](C)(CO)C(=O)C=C[C@]21C [TROGOPTEROID G] | > 40 µM | > 40 µM | > 40 µM | > 40 µM
CC(C)c1ccc2c(c1O)C[C@@H](O)[C@H]1[C@@](C)(CO)CCC[C@]21C [MACROPHYNIN E] | > 40 µM | > 40 µM | > 40 µM | > 40 µM
CC(C)c1cc2c(cc1O)C[C@@H](O)[C@H]1[C@@](C)(CO)CCC[C@]21C [TROGOPTEROID F] | > 40 µM | > 40 µM | > 40 µM | > 40 µM
CC(C)c1cc2c(cc1O)[C@@]1(C)CCCC(C)(C)[C@@H]1CC2 [FERRUGINOL] | > 40 µM | > 40 µM | 35.1 µM | 19.7 µM
C=C[C@]1(C)CC2(O)CC[C@H]3C(C)(C)C(=O)C=C[C@]3(C)[C@H]2CC1=O (stereo partly specified) [TROGOPTEROID C] | > 40 µM | > 40 µM | > 40 µM | > 40 µM
C=C[C@]1(C)C[C@]2(O)CC[C@H]3C(C)(C)C(=O)CC[C@]3(C)[C@H]2CC1=O [TROGOPTEROID B] | > 40 µM | > 40 µM | > 40 µM | > 40 µM
C=C[C@]1(C)C=C2CC[C@H]3[C@H](C)C(=O)CC[C@]3(C)[C@H]2CC1 | > 40 µM | > 40 µM | > 40 µM | > 40 µM
CC(C)c1c(O)ccc2c1C[C@@H](O)[C@H]1C(C)(C)C(=O)CC[C@]21C [TROGOPTEROID E] | > 40 µM | > 40 µM | > 40 µM | > 40 µM
CC[C@@]1(O)C(=O)OCc2c1cc1n(c2=O)Cc2cc3cc(O)ccc3nc2-1 [HYDROXYCAMPTOTHECIN] | 3.7 µM | 0.04 µM | 0.03 µM | 0.11 µM
CC1=C2C=C[C@]34C[C@](C)(CC[C@@H]3[C@@]2(C)CCC1=O)C(=O)O4 [TROGOPTEROID A] | > 40 µM | > 40 µM | > 40 µM | > 40 µM
C=C[C@@]1(C)CC[C@H]2[C@@](O)(CC[C@H]3[C@@](C)(CO)CCC[C@@]32C)C1 [AKHDARDIOL] | > 40 µM | > 40 µM | > 40 µM | > 40 µM
